Experimental findings from US11713322B2, “Benzimidazole derivatives as ERBB tyrosine kinase inhibitors for the treatment of cancer” (Capella Therapeutics, Inc., priority 2014, dated 2023) are described below.

Holding throughout (assay type): cell-based
Assay [1] deals with HCC827 human NSCLC adenocarcinoma cells. Put plainly: Cell proliferation assay, HCC827 (mutant ERBB1, exon 19 deletion). The conditions noted are these: for GI50: Homo sapiens, HCC827, 72 hrs compound treatment. As to the method:
(§1) The biological activity of a test compound was determined using cell proliferation assays. The activity against wild-type ERBB1 was determined using A431 human epidermoid carcinoma cells (ATCC) and human epidermal keratinocytes, neonatal, or HEKn cells (ATCC).
(§2) A431 cells were grown in DMEM (Invitrogen) supplemented with 10% FBS (Lonza), 1% penicillin-streptomycin, and 2 mM glutamine (Invitrogen). HEKn cells were grown in EPILIFE® (Invitrogen) supplemented with HKGS (Invitrogen). […] Cells were maintained and propagated at 37° C. and 5% CO2 in a humidified cell culture incubator. Aliquots of cells from early passages were preserved for liquid nitrogen storage. Frozen vials of cells were thawed at 37° C. water bath. Cells were spun to remove freezing medium. The newly revived frozen cells were adapted in culture for 10 days before used for compound testing. Cells used in the assay were less than 20 subculture passages or 3 months in culture.
(§3) The test compounds were dissolved in dimethylsulfoxide (DMSO) and stored at −20° C. before testing. […] The cells were placed in a culture incubator overnight. Next day, test compounds in DMSO were added to the cells and placed back in the culture incubator for 72 hrs. In the meantime, the cell numbers at time zero of the compound treatment (T0) was measured by EnerCount (Codex BioSolutions). At the end of the compound treatment, the cell numbers were again measured by EnerCount as T72 values. The untreated controls (Ctrl) were cell numbers recorded from the 0.1% DMSO treatment. The percent growth inhibition by the test compound was calculated by the formula: (1−(T72−T0)/(Ctrl−T0))×100.
(§4) The results are summarized in Tables 1 and 2, wherein A represents a value no greater than 500 nM, B represents a value greater than 500 nM but no greater than 1 μM, C represents a value greater than 1 μM but no greater than 5 μM, and D represents a value greater than 5 μM; and wherein A′ represents a ratio of greater than 10, B′ represents a ratio of no greater than 10 but no less than 5, C′ represents a ratio of no greater than 5 but no less than 2, and D′ represents a ratio of no greater than 2.

Assay [2] deals with H1975 human NSCLC adenocarcinoma cells. Nature of the assay: Cell proliferation assay, H1975 (drug-resistant mutant ERBB1, T790M/L858R). The settings on record: for GI50: Homo sapiens, NCI-H1975, 72 hrs compound treatment. On the procedure: as §1, §2, §3, §4
The subject of assay [3] is human epidermal keratinocytes, neonatal, or HEKn cells. Nature of the assay: Cell proliferation assay, HEKn (wild-type ERBB1). The conditions noted are these: Keratinocyte, 72 hrs compound treatment. As to the method:
as §1, §2, §3, §4

Assay [4] has as its system A431 human epidermoid carcinoma cells. Put plainly: Cell proliferation assay, A431 (wild-type ERBB1). The conditions noted are these: A-431, 72 hrs compound treatment, class symbols. As to the method:
as §1, §2
as §3, with “(1−(T72−T0)/(Ctrl−T0))×100. […]” for “(1−(T72−T0)/(Ctrl−T0))×100.”

Consider `C=CC(=O)N1CCCC[C@@H](n2c(NC(=O)c3ccnc(C(F)(F)F)c3)nc3ccc4c(c32)OCCO4)C1` [B1, (R)—N-(1-(1-acryloylazepan-3-yl)-7,8-dihydro-1H-[1,4]dioxino[2′,3′:3,4]benzo[1,2-d]imidazol-2-yl)-2-(trifluoromethyl)isonicotinamide], for which the GI50 (usually the concentration at which growth is held to half of that of the control) was less than 500 nM in assay [1] (class symbols), less than 500 nM in assay [2] (class symbols), greater than 5000 nM in assay [3] (class symbols) and 1000 to 5000 nM in assay [4].
Turning to `C=CC(=O)N1CCCC[C@@H](n2c(NC(=O)c3ccnc(C)c3)nc3ccc4c(c32)OCCO4)C1` [C1, (R)—N-(1-(1-acryloylazepan-3-yl)-7,8-dihydro-1H-[1,4]dioxino[2′,3′:3,4]benzo[1,2-d]imidazol-2-yl)-2-methylisonicotinamide], the GI50 in assay [1] (class symbols) is less than 500 nM; in assay [2] (class symbols), less than 500 nM; in assay [3] (class symbols), 1000 to 5000 nM; in assay [4] it was 1000 to 5000 nM.
As to `C=CC(=O)N1CCCC[C@@H](n2c(NC(=O)c3ccnc(OC)c3)nc3ccc4c(c32)OCCO4)C1` [C2, (R)—N-(1-(1-acryloylazepan-3-yl)-7,8-dihydro-1H-[1,4]dioxino[2′,3′:3,4]benzo[1,2-d]imidazol-2-yl)-2-methoxyisonicotinamide], the GI50 was less than 500 nM in assay [1] (class symbols), less than 500 nM in assay [2] (class symbols), 1000 to 5000 nM in assay [3] (class symbols) and 1000 to 5000 nM in assay [4].
`C=CC(=O)Nc1cccc(Nc2nc(Nc3ccc(N4CCN(C(C)=O)CC4)cc3OC)ncc2C(F)(F)F)c1` [CO-1686, reference compound]: the GI50 in assay [1] (numeric values, unit inferred) worked out at 32 nM; in assay [2] (numeric values, unit inferred), 109 nM; in assay [3] (numeric values, unit inferred), 2500 nM. For the same compound, the “Selectivity Ratio (Wild-type ERBB1/Mutant ERBB1) HEKn/HCC827” value in assay [1] (ratio of GI50 HEKn/HCC827) is reported as “A′ (A′ represents a ratio of greater than 10)”. In assay [2] (ratio of GI50 HEKn/H1975), the “Selectivity Ratio (Wild-type ERBB1/Mutant ERBB1) HEKn/H1975” value is on record as “A′ (A′ represents a ratio of greater than 10)”.
